Assays:
Type in all cases: cell-based
[1] = test system: mCherry-GAL9 expressing U2OS cells; experiment: GAL9 recruitment assay, U2OS; details: calculated mean from >3 independent exp.
Method: (§1) Experiments assessing GAL9 localization as an indicator for endosomal remodeling were performed as previously described[15] using 8× stablemCherry-GAL9 expressing cell lines, SHSY5Y, U2OS, 16HBE, NCI-H358, HuH7, HepG2, HEK293, and HeLa. For mCherry-GAL9 recruitment, 3,000 or 6,500 cells/well (depending upon cell line) were seeded into 384-well CellCarrier Ultra plates 24 h prior to treatment (PerkinElmer, catalog no. 6007558). An Echo 655T acoustic dispenser (Labcyte) was used for EEE dose-response preparation by transferring to the cell plate. At assay endpoints, cells were PBS washed, 4% paraformaldehyde fixed at room temperature […] (VWR, catalog no. 9713.1000), and nuclei stained with PBS +1 μg/mL Hoechst 33342 (Thermo Fisher Scientific, catalog no. H21492).
(§2) Imaging was performed using a spinning-disk confocal microscope (Yokogawa: CV8000) with a ×20w objective (numerical aperture 1.0). Cells and mCherry-GAL9 structure identification and quantification were done using Columbus image-analysis software (PerkinElmer version 2.9.0). Data processing was done using Spotfire (Tibco version 11.4) and Prism (GraphPad version 9.1.0). Image panels were assembled using the FigureJ plugin for FIJI.[43] All mCherry-GAL9 experiments were performed three times (N = 3) with duplicated wells per treatment (n = 2).

[2] = test system: mCherry-GAL9 expressing HEK293 cells; experiment: GAL9 recruitment assay, HEK293; details: calculated mean from >3 independent exp.
Method: as §1, §2

[3] = test system: HeLa_Luc705 cells (pLuc/705 splice-switching reporter); experiment: Functional 705-SSO delivery, luciferase splice-switching assay; details: HeLa-Luc705 + 2 µM SSO; EEE 2.5 - 3 µM; mean from >3 independent experiments
From the text: Therefore, next, we functionally screened the SSO delivery in the HeLa_Luc705 reporter cell line. HeLa_Luc705 carries a pLuc/705 splice-switching reporter luciferase gene interrupted by a mutated β-globin intron, which creates a preferentially used cryptic 5′ splice site leading to aberrant splicing. Functional SSO delivery masks the cryptic site, redirecting the splicing machinery to the right splicing site, allowing the measurement of luciferase expression (Figure S1).[25]^,[26]^,[27]^,[28] We used SSO transfection with LF2000 as transfection control and the previously published endosomal escape enhancer CMP05 (here, EEE2) as positive control.[15]
For the assessment of functional SSO therapeutics, a HeLa_Luc705 cell line was grown in DMEM media supplemented with 10% fetal bovine serum (FBS). For most treatments, 10,000 cells/well were seeded in a 96-well plate, 24 h pre-incubated with 1- to 2-μM oligonucleotide, and then treated at the described EEE concentration. At 24 h post-treatment, cells were PBS rinsed and collected for further analysis (treatments and incubation times changed accordingly to the experiment design). Luciferase readout was performed as previously described,[15] using a GloMax 96-well plate microplate luminometer (Promega) immediately after adding 30 μL auto-injected luciferin substrate (Promega Firefly Luciferase Assay System; Thermo Scientific, catalog no. 16174) in a white-walled 96-well plate containing 30 μL 0.1% Triton X-100 (Sigma-Aldrich) cell lysed. Photon exposure time and delay were set to 10 and 2 s after injection. LF2000 was used as the transfection reagent control (Thermo Scientific, catalog no. 11668019). For EEE experiments using 1 or 2 μM SSOs, the control was prepared using lipofection with 100–200 nM SSO; this is to avoid complex induced cell toxicity.
705-SSO was purchased from and synthesized by Integrated DNA Technologies. The 705-SSO sequence was previously published, containing 2′-O-methylated bases and only phosphorothioate-saturated backbone linkages were included.[15] The 705-SSO was high-performance liquid chromatography purified, shipped, and stored in IDTE buffer (10 mM Tris, 0.1 mM EDTA).

[4] = test system: mCherry-GAL9 expressing NCI-H358 cells; experiment: GAL9 recruitment assay, NCI-H358; details: calculated mean from >3 independent exp.
Method: as §1, §2

[5] = test system: mCherry-GAL9 expressing HepG2 cells; experiment: GAL9 recruitment assay, HepG2; details: calculated mean from >3 independent exp.
Method: as §1, §2

[6] = test system: mCherry-GAL9 expressing SHSY5Y cells; experiment: GAL9 recruitment assay, SHSY5Y; details: calculated mean from >3 independent exp.
Method: as §1, §2

[7] = test system: mCherry-GAL9 expressing HuH7 cells; experiment: GAL9 recruitment assay, HuH7; details: calculated mean from >3 independent exp.
Method: as §1, §2

[8] = test system: mCherry-GAL9 expressing HeLa cells; experiment: GAL9 recruitment assay, HeLa; details: calculated mean from >3 independent exp.
Method: as §1, §2

[9] = test system: mCherry-GAL9 expressing 16HBE cells; experiment: GAL9 recruitment assay, 16HBE; details: calculated mean from >3 independent exp.
Method: as §1, §2

With `CCN1CCC(n2cc(Nc3ncc(F)c(-n4ccc5c(C#N)cccc54)n3)c(OC)n2)CC1` [EEE11] the “Gal9 response compared to reference” value ([1]; EEE 0.31 µM) was 0.012, the “Gal9 response compared to reference” value ([1]; EEE 0.62 µM) was 0.015 and the “Gal9 response compared to reference” value ([1]; EEE 1.25 µM) was 0.018. The “Gal9 response compared to reference” value ([1]; EEE 2.5 µM) was 0.048, the “Gal9 response compared to reference” value ([1]; EEE 5 µM) was 0.317 and the “Gal9 response compared to reference” value ([1]; EEE 10 µM) was 0.483. For the same compound, the “Gal9 response compared to reference” value ([2]; EEE 0.31 µM) was 0.027, the “Gal9 response compared to reference” value ([2]; EEE 0.62 µM) was 0.022 and the “Gal9 response compared to reference” value ([2]; EEE 1.25 µM) was 0.106. The “Gal9 response compared to reference” value ([2]; EEE 2.5 µM) was 0.438, the “Gal9 response compared to reference” value ([2]; EEE 5 µM) was 0.779 and the “Gal9 response compared to reference” value ([2]; EEE 10 µM) was 0.493. The “Luciferase expression compared to reference” value [3] was 2.093, the “Gal9 response compared to reference” value ([4]; EEE 0.31 µM) was 0.016 and the “Gal9 response compared to reference” value ([4]; EEE 0.62 µM) was 0.020. The “Gal9 response compared to reference” value ([4]; EEE 1.25 µM) was 0.036, the “Gal9 response compared to reference” value ([4]; EEE 2.5 µM) was 0.143 and the “Gal9 response compared to reference” value ([4]; EEE 5 µM) was 0.614. The “Gal9 response compared to reference” value ([4]; EEE 10 µM) was 0.576, the “Gal9 response compared to reference” value ([5]; EEE 0.31 µM) was 0.009 and the “Gal9 response compared to reference” value ([5]; EEE 0.62 µM) was 0.008. For the same compound, the “Gal9 response compared to reference” value ([5]; EEE 1.25 µM) was 0.007, the “Gal9 response compared to reference” value ([5]; EEE 2.5 µM) was 0.019 and the “Gal9 response compared to reference” value ([5]; EEE 5 µM) was 0.163. The “Gal9 response compared to reference” value ([5]; EEE 10 µM) was 0.568, the “Gal9 response compared to reference” value ([6]; EEE 0.31 µM) was 0.014 and the “Gal9 response compared to reference” value ([6]; EEE 0.62 µM) was 0.018. For the same compound, the “Gal9 response compared to reference” value ([6]; EEE 1.25 µM) was 0.385, the “Gal9 response compared to reference” value ([6]; EEE 2.5 µM) was 0.801 and the “Gal9 response compared to reference” value ([6]; EEE 5 µM) was 0.691. The “Gal9 response compared to reference” value ([6]; EEE 10 µM) was 0.469, the “Gal9 response compared to reference” value ([7]; EEE 0.31 µM) was 0.009 and the “Gal9 response compared to reference” value ([7]; EEE 0.62 µM) was 0.008. The “Gal9 response compared to reference” value ([7]; EEE 1.25 µM) was 0.023, the “Gal9 response compared to reference” value ([7]; EEE 2.5 µM) was 0.154 and the “Gal9 response compared to reference” value ([7]; EEE 5 µM) was 0.258. The “Gal9 response compared to reference” value ([7]; EEE 10 µM) was 0.222, the “Gal9 response compared to reference” value ([8]; EEE 0.31 µM) was 0.005 and the “Gal9 response compared to reference” value ([8]; EEE 0.62 µM) was 0.004. For the same compound, the “Gal9 response compared to reference” value ([8]; EEE 1.25 µM) was 0.013, the “Gal9 response compared to reference” value ([8]; EEE 2.5 µM) was 0.253 and the “Gal9 response compared to reference” value ([8]; EEE 5 µM) was 0.553. For the same compound, the “Gal9 response compared to reference” value ([8]; EEE 10 µM) was 0.370, the “Gal9 response compared to reference” value ([9]; EEE 0.31 µM) was 0.013 and the “Gal9 response compared to reference” value ([9]; EEE 0.62 µM) was 0.013. The “Gal9 response compared to reference” value ([9]; EEE 1.25 µM) was 0.056, the “Gal9 response compared to reference” value ([9]; EEE 2.5 µM) was 0.167 and the “Gal9 response compared to reference” value ([9]; EEE 5 µM) was 0.507. For the same compound, the “Gal9 response compared to reference” value ([9]; EEE 10 µM) was 0.623.
